According to US9588122B2, “Methods of treating cancer sensitive to anti-EGFR therapy and modifying treatment using peroxiredoxin 6 biomarker” (The Board of Trustees of the Leland Stanford Junior …, priority 2013, dated 2017):

Key:
A431 = test: Dose-dependent change in panel protein levels by western blot; format: cell-based, human; conditions: for BAG4 protein level change / CAD17 protein level change / CBFB protein level change / Claudin 1 protein level change / ELAVL-1 protein level change / EpCAM protein level change / HSPG2 protein level change / PDCD4 protein level change / PRDX6 protein level change / QARS protein level change / S100A9 protein level change / SERPINE1 protein level change / SNX5 protein level change / TESTICAN2 protein level change / TNFAIP2 protein level change / TROP-2 protein level change: dose-dependent, 16 h; for changes in levels of the 16 validated proteins (immunoblots): erlotinib 100-1,000 nM, paclitaxel 10-100 nM; for BAG4 protein level change: key: (+) for increase; (−) for decrease; N.C.: (N.C) for no change; (~) for not detected; for CAD17 protein level change: key: (+) for increase; (−) for decrease; N.C.: (N.C) for no change; (~) for not detected; for CBFB protein level change: key: (+) for increase; (−) for decrease; N.C.: (N.C) for no change; (~) for not detected; for Claudin 1 protein level change: key: (+) for increase; (−) for decrease; N.C.: (N.C) for no change; (~) for not detected
Protocol: (§1) Lysates were sonicated for 10 minutes, heated at 95° C. for 10 minutes, and centrifuged for 15 minutes at 20,000×g. The supernatant was cleared through a 0.22-micron filter and protein concentration was determined (BCA, BioRad, Hercules, Calif.). Lysates were subject to SDS-PAGE and subsequent immunoblot. For in vivo experiments, mouse tumor pieces from 5 mice were pooled and suspended in RAF buffer and homogenized with a high-speed blender. The homogenate was centrifuged for 5 min at 200×g. The supernatant was sonicated on ice for 2 minutes and centrifuged for 1 hr at 12,000×g. The supernatant (soluble fraction) was cleared through a 0.22-micron filter and processed as above. The pellet (insoluble fraction) was resuspended in RAF buffer with 2% SDS and DTT, heated at 95° C. and sonicated prior to processing.

A431 xenografts [1] = test: A431 xenograft model (Example 1); format: in vivo, mice
Text: . […] . Control animals received vehicle alone (20 animals).

A431-ZDR tumors = test: Gefitinib-resistant A431-ZDR xenograft model (Example 1); format: in vivo, mice; conditions: treated vs untreated controls
Protocol: Lysates were sonicated for 10 minutes, heated at 95° C. for 10 minutes, and centrifuged for 15 minutes at 20,000×g. The supernatant was cleared through a 0.22-micron filter and protein concentration was determined (BCA, BioRad, Hercules, Calif.). Lysates were subject to SDS-PAGE and subsequent immunoblot. For in vivo experiments, mouse tumor pieces from 5 mice were pooled and suspended in RAF buffer and homogenized with a high-speed blender. The homogenate was centrifuged for 5 min at 200×g. The supernatant was sonicated on ice for 2 minutes and centrifuged for 1 hr at 12,000×g. The supernatant (soluble fraction) was cleared through a 0.22-micron filter and processed as above. The pellet (insoluble fraction) was resuspended in RAF buffer with 2% SDS and DTT, heated at 95° C. and sonicated prior to processing. Serum from 5 mice was pooled and depleted using two MARS-3 columns (Agilent) connected in tandem with HPLC. The unbound fraction was concentrated to a final concentration of 2 mg/ml and processed as above.

H1975 xenografts = test: H1975 xenograft study (Example 2)
A431 xenografts [2] = test: A431 subcutaneous xenograft study (Example 2)
H1650 = test: Dose-dependent change in panel protein levels by western blot; conditions: 16 h
Protocol: as §1

H23 = test: as above; conditions: 16 h
Protocol: as §1

H1975 = test: as above; conditions: 16 h
Protocol: as §1

NSCLC patients = test: PRDX6 levels in circulation of NSCLC patients before and after Tarceva; format: in vivo, human
Text: To validate if this temporal profile is replicated in a clinical setting, the plasma and/or sera from human NSCLC patients was studied before and after Tarceva® (erlotinib) treatment. […] Serum samples from MRN #48 (FIG. 10A) were taken before and after treatment with Tarceva®. […] Plasma samples were obtained before treatment, and at 2 weeks and 4 weeks post initiation of treatment.

NSCLC cells = test: Biomarker profiles / PRDX6 shedding of treated NSCLC (Example 3); format: cell-based
A431 cells = conditions: previously shown; read-out: IC50 of paclitaxel in A431 cells; cited from earlier work
[3] = patient MRN 9, Pre-Tarceva 1.07 +/− 0.03
[4] = patient MRN 48, Pre-Tarceva 0.27 +/− 0.01
[5] = patient MRN 91, Pre-Tarceva 0.65 +/− 0.09

SMILES: COc1cc2ncnc(Nc3ccc(F)c(Cl)c3)c2cc1OCCCN1CCOCC1 [gefitinib]
- VAMP3, KLF5, and GLTSCR2 level (A431; 100 nM): marginal increase
- level of all other verified proteins (A431; 100, 500, and 1,000 nM, 16 hrs, western blot): dose-dependent increase
- ELAVL-1 response at higher doses (A431; 500 and 1,000 nM vs 100 nM, 16 hrs, western blot): not amplified at higher doses
- BAG4 protein level change (A431; western blot): +
- CAD17 protein level change (A431; western blot): +
- CBFB protein level change (A431; western blot): +
- Claudin 1 protein level change (A431; western blot): +
- ELAVL-1 protein level change (A431; western blot): +
- EpCAM protein level change (A431; western blot): +
- HSPG2 protein level change (A431; western blot): +
- PDCD4 protein level change (A431; western blot): +
- PRDX6 protein level change (A431; western blot): +
- QARS protein level change (A431; western blot): +
- S100A9 protein level change (A431; western blot): +
- SERPINE1 protein level change (A431; western blot): +
- SNX5 protein level change (A431; western blot): −
- TESTICAN2 protein level change (A431; western blot): +
- TNFAIP2 protein level change (A431; western blot): +
- TROP-2 protein level change (A431; western blot): +
- tumor size and growth (A431 xenografts [1]; 50 mg/kg gefitinib vs untreated): significantly smaller than those in untreated mice and grew at a slower rate
- panel proteins whose in vivo change was concordant with in vitro experiments (A431 xenografts [1]; A431 tumor lysates, immunoblot): 12 of the 16
- tumor growth rates (A431-ZDR tumors): No differences in tumor growth rates
- tumor response (tumor volumes) (H1975 xenografts; 50 mg/kg daily oral, vs vehicle): no response
- mean serum PRDX6 levels (H1975 xenografts; after treatment): increased
- PRDX6 levels with respect to treatment (H1975 xenografts; models carrying Iressa-resistant NSCLC xenografts): did not change
- difference in mean change from baseline in serum PRDX6 (H1975 xenografts; vs vehicle, Day 4 (P=0.461), Day 10-14 (P=0.3404)): not statistically significant
- difference in mean change from baseline in serum PRDX6 normalized to tumor volume (H1975 xenografts; vs vehicle, Day 4 (P=0.7922), Day 10-14 (P=0.8849)): not significant
- tumor growth (A431 xenografts [2]; 50 mg/kg daily oral, vs vehicle Day 7 P=0.0102, Day 11 P=0.002, Day 15 P=0.0001): marked arrest in tumor growth
- mean serum PRDX6 levels (A431 xenografts [2]; between Day 0 and Day 15, change vs vehicle P<0.0001): decreased
- tumor PRDX6 (tumor lysates) (A431 xenografts [2]; day 15, vs vehicle, P=0.2185): no statistically significant difference
- difference in mean change from baseline in serum PRDX6 normalized to tumor volume (A431 xenografts [2]; vs vehicle, P=0.0027): statistically significant
- BAG4 protein level change (H1650): N.C.
- CAD17 protein level change (H1650): +
- CBFB protein level change (H1650): +
- Claudin 1 protein level change (H1650): +
- ELAVL-1 protein level change (H1650): +
- EpCAM protein level change (H1650): +
- HSPG2 protein level change (H1650): +
- PDCD4 protein level change (H1650): +
- PRDX6 protein level change (H1650): +
- QARS protein level change (H1650): +
- S100A9 protein level change (H1650): N.C.
- SERPINE1 protein level change (H1650): +
- SNX5 protein level change (H1650): N.C.
- TESTICAN2 protein level change (H1650): N.C.
- TNFAIP2 protein level change (H1650): +
- TROP-2 protein level change (H1650): +
- BAG4 protein level change (H23): +
- CAD17 protein level change (H23): +
- CBFB protein level change (H23): N.C.
- Claudin 1 protein level change (H23): N.C.
- ELAVL-1 protein level change (H23): N.C.
- EpCAM protein level change (H23): N.C.
- HSPG2 protein level change (H23): N.C.
- PDCD4 protein level change (H23): N.C.
- PRDX6 protein level change (H23): N.C.
- QARS protein level change (H23): N.C.
- S100A9 protein level change (H23): N.C.
- SERPINE1 protein level change (H23): N.C.
- SNX5 protein level change (H23): N.C.
- TNFAIP2 protein level change (H23): +
- TROP-2 protein level change (H23): N.C.
- BAG4 protein level change (H1975): N.C.
- CAD17 protein level change (H1975): N.C.
- CBFB protein level change (H1975): N.C.
- Claudin 1 protein level change (H1975): N.C.
- ELAVL-1 protein level change (H1975): N.C.
- EpCAM protein level change (H1975): N.C.
- HSPG2 protein level change (H1975): N.C.
- PDCD4 protein level change (H1975): N.C.
- PRDX6 protein level change (H1975): N.C.
- S100A9 protein level change (H1975): N.C.
- SERPINE1 protein level change (H1975): N.C.
- SNX5 protein level change (H1975): N.C.
- TESTICAN2 protein level change (H1975): N.C.
- TNFAIP2 protein level change (H1975): N.C.
- TROP-2 protein level change (H1975): N.C.

SMILES: C#Cc1cccc(Nc2ncnc3cc(OCCOC)c(OCCOC)cc23)c1 [erlotinib]
- BAG4 protein level change (A431; western blot): +
- CAD17 protein level change (A431; western blot): +
- CBFB protein level change (A431; western blot): +
- Claudin 1 protein level change (A431; western blot): +
- ELAVL-1 protein level change (A431; western blot): +
- EpCAM protein level change (A431; western blot): +
- HSPG2 protein level change (A431; western blot): +
- PDCD4 protein level change (A431; western blot): +
- PRDX6 protein level change (A431; western blot): +
- QARS protein level change (A431; western blot): +
- S100A9 protein level change (A431; western blot): +
- SERPINE1 protein level change (A431; western blot): +
- SNX5 protein level change (A431; western blot): −
- TESTICAN2 protein level change (A431; western blot): +
- TNFAIP2 protein level change (A431; western blot): +
- TROP-2 protein level change (A431; western blot): +
- changes in levels of the 16 validated proteins (immunoblots) (A431): mirrored the effect of gefitinib
- circulating PRDX6 profile in patients with positive response (NSCLC patients; at least three patients, pilot data): initial rise in circulating PRDX6 (2-4 weeks post-therapy) followed by a decline in PRDX6 levels by 8 weeks post-therapy
- PRDX6 level in circulation, Post-Tarceva (2 wks.) (NSCLC patients; [3]): 1.63 +/− 0.05 ng PRDX6/Total Protein in circulation
- PRDX6 level in circulation, Post-Tarceva (3.5 to 4 wks.) (NSCLC patients; [3]): 0.33 +/− 0.11 ng PRDX6/Total Protein in circulation
- PRDX6 level in circulation, Post-Tarceva (6.5-8 wks.) (NSCLC patients; [3]): 0.45 +/− 0.05 ng PRDX6/Total Protein in circulation
- PRDX6 level in circulation, Post-Tarceva (2 wks.) (NSCLC patients; [4]): 0.76 +/− 0.08 ng PRDX6/Total Protein in circulation
- PRDX6 level in circulation, Post-Tarceva (3.5 to 4 wks.) (NSCLC patients; [4]): 0.42 +/− 0.02 ng PRDX6/Total Protein in circulation
- PRDX6 level in circulation, Post-Tarceva (3.5 to 4 wks.) (NSCLC patients; [5]): 5.0 +/− 0.3 ng PRDX6/Total Protein in circulation
- PRDX6 level in circulation, Post-Tarceva (6.5-8 wks.) (NSCLC patients; [5]): 0.46 +/− 0.18 ng PRDX6/Total Protein in circulation
- biomarker profiles by treated NSCLC cells (NSCLC cells; compared with Iressa treated cells, data not shown): the same as Iressa

SMILES: O=c1[nH]c2ccccc2n1C1CCN(Cc2ccc(-c3nc4cc5[nH]cnc5cc4nc3-c3ccccc3)cc2)CC1 [A6730]
- BAG4 protein level change (A431; western blot): +
- CAD17 protein level change (A431; western blot): N.C.
- CBFB protein level change (A431; western blot): +
- Claudin 1 protein level change (A431; western blot): +
- ELAVL-1 protein level change (A431; western blot): N.C.
- EpCAM protein level change (A431; western blot): N.C.
- HSPG2 protein level change (A431; western blot): N.C.
- PDCD4 protein level change (A431; western blot): N.C.
- PRDX6 protein level change (A431; western blot): N.C.
- QARS protein level change (A431; western blot): +
- S100A9 protein level change (A431; western blot): N.C.
- SERPINE1 protein level change (A431; western blot): N.C.
- SNX5 protein level change (A431; western blot): N.C.
- TESTICAN2 protein level change (A431; western blot): N.C.
- TNFAIP2 protein level change (A431; western blot): +
- TROP-2 protein level change (A431; western blot): N.C.

SMILES: CC(=O)O[C@H]1C(=O)[C@@]2(C)[C@H]([C@H](OC(=O)c3ccccc3)[C@]3(O)C[C@H](OC(=O)[C@H](O)[C@@H](NC(=O)c4ccccc4)c4ccccc4)C(C)=C1C3(C)C)[C@]1(OC(C)=O)CO[C@@H]1C[C@@H]2O [paclitaxel]
- BAG4 protein level change (A431; western blot): N.C.
- CAD17 protein level change (A431; western blot): N.C.
- CBFB protein level change (A431; western blot): N.C.
- Claudin 1 protein level change (A431; western blot): N.C.
- ELAVL-1 protein level change (A431; western blot): N.C.
- EpCAM protein level change (A431; western blot): N.C.
- HSPG2 protein level change (A431; western blot): N.C.
- PDCD4 protein level change (A431; western blot): N.C.
- PRDX6 protein level change (A431; western blot): N.C.
- QARS protein level change (A431; western blot): N.C.
- S100A9 protein level change (A431; western blot): N.C.
- SERPINE1 protein level change (A431; western blot): N.C.
- SNX5 protein level change (A431; western blot): N.C.
- TESTICAN2 protein level change (A431; western blot): N.C.
- TNFAIP2 protein level change (A431; western blot): N.C.
- TROP-2 protein level change (A431; western blot): N.C.
- changes in levels of the 16 validated proteins (immunoblots) (A431): none of the proteins tested demonstrated a change in abundance
- shedding of PRDX6 (NSCLC cells; effective paclitaxel treatment on NSCLC): failed to elicit a similar shedding of PRDX6
- IC50 (A431 cells): ~10 nM

SMILES: COc1cccc(-c2cc(=O)c3ccccc3o2)c1N [PD98059]
- Claudin-1 expression (A431; AKT or MAPK pathway inhibition): changes in expression
- panel proteins that showed a change in abundance (A431; AKT or MAPK pathway inhibition): CAD17, PDCD4, S100A9, SERPINE1, and Testican-2
- panel proteins unchanged by treatment (A431; AKT or MAPK pathway inhibition): ELAVL-1, EpCAM, HSPG2, TROP2, and SNX5
- BAG4 protein level change (A431; western blot): N.C.
- CAD17 protein level change (A431; western blot): +
- CBFB protein level change (A431; western blot): N.C.
- Claudin 1 protein level change (A431; western blot): +
- ELAVL-1 protein level change (A431; western blot): N.C.
- EpCAM protein level change (A431; western blot): N.C.
- HSPG2 protein level change (A431; western blot): N.C.
- PDCD4 protein level change (A431; western blot): +
- PRDX6 protein level change (A431; western blot): +
- QARS protein level change (A431; western blot): N.C.
- S100A9 protein level change (A431; western blot): +
- SERPINE1 protein level change (A431; western blot): +
- SNX5 protein level change (A431; western blot): N.C.
- TESTICAN2 protein level change (A431; western blot): +
- TNFAIP2 protein level change (A431; western blot): N.C.
- TROP-2 protein level change (A431; western blot): N.C.
